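Dose response: 5 concentrations. Exposure: 48 h. Format: 96-well plates. Endpoint: linear interpolation; highest concentration if not reached. The concentration for 50% growth inhibition is given as GI50.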 The source made the active and inactive calls. No stated cut-off is given here; in the data, active = GI50 up to about 1.1 µM and inactive = higher.
Assays:
Experiment in all cases: inhibition of tumour cell growth, NCI panel, 48 h
U-251 = system: U-251
MDA-MB-231 = system: MDA-MB-231
DU-145 = system: DU-145
NCI-H460 = system: NCI-H460
OVCAR-3 = system: OVCAR-3
RPMI-8226 = system: RPMI-8226
RXF 393 = system: RXF 393
HOP-62 = system: HOP-62
OVCAR-5 = system: OVCAR-5
SK-MEL-5 = system: SK-MEL-5
MDA-MB-435 = system: MDA-MB-435
SK-MEL-2 = system: SK-MEL-2
T47D = system: T47D
UACC-257 = system: UACC-257
SR = system: SR
TK-10 = system: TK-10
A549 = system: A549
LOX IMVI = system: LOX IMVI
SF-295 = system: SF-295
SF-539 = system: SF-539

With `Cc1ccc2c(ccc3[nH]cc(CNc4ccc(NS(C)(=O)=O)cc4)c32)n1` the GI50 (U-251) was 25.9 µM (inactive), the GI50 (MDA-MB-231) was 25.3 µM (inactive) and the GI50 (DU-145) was 18.7 µM (inactive). For the same compound, the GI50 (NCI-H460) was 18.9 µM (inactive), the GI50 (OVCAR-3) was 19.7 µM (inactive) and the GI50 (RPMI-8226) was 19.1 µM (inactive). The GI50 (RXF 393) was 9.14 µM (inactive), the GI50 (HOP-62) was 24.2 µM (inactive) and the GI50 (OVCAR-5) was 23.8 µM (inactive). For the same compound, the GI50 (SK-MEL-5) was 18.6 µM (inactive), the GI50 (MDA-MB-435) was 16.8 µM (inactive) and the GI50 (SK-MEL-2) was 18.6 µM (inactive). For the same compound, the GI50 (T47D) was 12.3 µM (inactive), the GI50 (UACC-257) was 19.1 µM (inactive) and the GI50 (SR) was 21.8 µM (inactive). For the same compound, the GI50 (TK-10) was 37.7 µM (inactive), the GI50 (A549) was 23.1 µM (inactive) and the GI50 (LOX IMVI) was 20.6 µM (inactive). For the same compound, the GI50 (SF-295) was 21.8 µM (inactive) and the GI50 (SF-539) was 22.9 µM (inactive).
In the case of `N#CC(NC12CC3CC(CC(C3)C1)C2)c1ccc2c(c1)OCO2` (stereo not given), the GI50 (U-251) is reported as > 100 µM (inactive), the GI50 (MDA-MB-231) is reported as > 100 µM (inactive) and the GI50 (DU-145) is reported as > 100 µM (inactive). The GI50 (NCI-H460) was > 100 µM (inactive), the GI50 (OVCAR-3) was > 100 µM (inactive) and the GI50 (RPMI-8226) was > 100 µM (inactive). The GI50 (RXF 393) was > 100 µM (inactive), the GI50 (HOP-62) was > 100 µM (inactive) and the GI50 (OVCAR-5) was > 100 µM (inactive). For the same compound, the GI50 (SK-MEL-5) was > 100 µM (inactive), the GI50 (MDA-MB-435) was > 100 µM (inactive) and the GI50 (SK-MEL-2) was > 100 µM (inactive). For the same compound, the GI50 (T47D) was > 100 µM (inactive), the GI50 (UACC-257) was > 100 µM (inactive) and the GI50 (SR) was > 100 µM (inactive). For the same compound, the GI50 (TK-10) was > 100 µM (inactive), the GI50 (A549) was > 100 µM (inactive) and the GI50 (LOX IMVI) was > 100 µM (inactive). For the same compound, the GI50 (SF-295) was > 100 µM (inactive) and the GI50 (SF-539) was > 100 µM (inactive).
With `COc1cc(OC)c(NC2=NCCO2)cc1Cl` the GI50 (U-251) was 39.7 µM (inactive), the GI50 (MDA-MB-231) was 26.1 µM (inactive) and the GI50 (DU-145) was 38.2 µM (inactive). The GI50 (NCI-H460) was 21.2 µM (inactive), the GI50 (OVCAR-3) was 43.6 µM (inactive) and the GI50 (RPMI-8226) was 46.8 µM (inactive). For the same compound, the GI50 (RXF 393) was 46.1 µM (inactive), the GI50 (HOP-62) was 49.7 µM (inactive) and the GI50 (OVCAR-5) was 53.8 µM (inactive). The GI50 (SK-MEL-5) was 23.1 µM (inactive), the GI50 (MDA-MB-435) was 20.1 µM (inactive) and the GI50 (SK-MEL-2) was 17.3 µM (inactive). The GI50 (T47D) was 54.5 µM (inactive), the GI50 (UACC-257) was 31 µM (inactive) and the GI50 (SR) was 27.4 µM (inactive). For the same compound, the GI50 (TK-10) was 60.3 µM (inactive), the GI50 (A549) was 46.3 µM (inactive) and the GI50 (LOX IMVI) was 31.4 µM (inactive). The GI50 (SF-295) was 82.8 µM (inactive) and the GI50 (SF-539) was 25.5 µM (inactive).
In the case of `O=C(/C=C/c1cccc(Oc2ccccc2)c1)NCc1ccc(C(=O)NCCc2ccccc2)cc1`, the GI50 (U-251) is reported as 35 µM (inactive), the GI50 (MDA-MB-231) is reported as 82.4 µM (inactive) and the GI50 (DU-145) is reported as > 100 µM (inactive). The GI50 (NCI-H460) was > 100 µM (inactive), the GI50 (OVCAR-3) was > 100 µM (inactive) and the GI50 (RPMI-8226) was > 100 µM (inactive). For the same compound, the GI50 (RXF 393) was 20 µM (inactive), the GI50 (HOP-62) was 27.2 µM (inactive) and the GI50 (OVCAR-5) was > 100 µM (inactive). The GI50 (SK-MEL-5) was > 100 µM (inactive), the GI50 (MDA-MB-435) was > 100 µM (inactive) and the GI50 (SK-MEL-2) was > 100 µM (inactive). For the same compound, the GI50 (T47D) was > 100 µM (inactive), the GI50 (UACC-257) was > 100 µM (inactive) and the GI50 (SR) was > 100 µM (inactive). The GI50 (TK-10) was > 100 µM (inactive), the GI50 (A549) was > 100 µM (inactive) and the GI50 (LOX IMVI) was > 100 µM (inactive). The GI50 (SF-295) was > 100 µM (inactive) and the GI50 (SF-539) was 14.8 µM (inactive).
For `CCN(CC)C(=S)SC(=S)N(CC)CC`, the GI50 (U-251) was 36 µM (inactive), the GI50 (MDA-MB-231) was 32.9 µM (inactive) and the GI50 (DU-145) was 55.8 µM (inactive). The GI50 (NCI-H460) was 2.3 µM (inactive), the GI50 (OVCAR-3) was 37 µM (inactive) and the GI50 (RPMI-8226) was 15.6 µM (inactive). For the same compound, the GI50 (RXF 393) was 36.6 µM (inactive), the GI50 (HOP-62) was 53.7 µM (inactive) and the GI50 (OVCAR-5) was > 100 µM (inactive). For the same compound, the GI50 (SK-MEL-5) was 5.07 µM (inactive), the GI50 (MDA-MB-435) was 34.1 µM (inactive) and the GI50 (SK-MEL-2) was 31.3 µM (inactive). The GI50 (T47D) was 32.4 µM (inactive), the GI50 (UACC-257) was 41.6 µM (inactive) and the GI50 (SR) was 0.0482 µM (active). For the same compound, the GI50 (TK-10) was > 51.2 µM (inactive), the GI50 (A549) was 28.5 µM (inactive) and the GI50 (LOX IMVI) was 23.4 µM (inactive). For the same compound, the GI50 (SF-295) was 39.8 µM (inactive) and the GI50 (SF-539) was > 62.8 µM (inactive).
In the case of `C=C1C(=O)O[C@H]2C3C(=C(C)CC[C@@H]12)C(=O)[C@@H]1OC31C` (stereo not given in full), the GI50 (U-251) is reported as 13.4 µM (inactive), the GI50 (MDA-MB-231) is reported as 3.94 µM (inactive) and the GI50 (DU-145) is reported as 12.5 µM (inactive). For the same compound, the GI50 (NCI-H460) was 10.1 µM (inactive), the GI50 (OVCAR-3) was 2 µM (inactive) and the GI50 (RPMI-8226) was 0.746 µM (active). The GI50 (RXF 393) was 1.56 µM (inactive), the GI50 (HOP-62) was 14.8 µM (inactive) and the GI50 (OVCAR-5) was 10.4 µM (inactive). The GI50 (SK-MEL-5) was 1.59 µM (inactive), the GI50 (MDA-MB-435) was 2.72 µM (inactive) and the GI50 (SK-MEL-2) was 4.48 µM (inactive). For the same compound, the GI50 (T47D) was 1.81 µM (inactive), the GI50 (UACC-257) was 2.24 µM (inactive) and the GI50 (SR) was 0.622 µM (active). The GI50 (TK-10) was 2.27 µM (inactive), the GI50 (A549) was 13 µM (inactive) and the GI50 (LOX IMVI) was 2.11 µM (inactive). For the same compound, the GI50 (SF-295) was 14 µM (inactive) and the GI50 (SF-539) was 2.43 µM (inactive).

Reference: ChEMBL document CHEMBL1201862, “PubChem BioAssay data set” (2004)
